Experimental data published in PMC8318231, “Rate-of-Kill (RoK) assays to triage large compound sets for Chagas disease drug discovery: Application to GSK Chagas Box” (PLoS Neglected Tropical Diseases, 2021).
Read-outs that look alike come from different tables or passages of the source.

What was measured:
[1] = system: T. cruzi Tulahuen trypomastigotes; test: T. cruzi trypomastigote assay (Cell Titer-Glo viability, ATP luminescence); format: cell-based, Trypanosoma cruzi; conditions: for IC50: Trypanosoma cruzi, TULAHUEN; for Trypomastigotes pIC50 48 hours: 48 hours incubation; for Trypomastigotes pIC50 48 hours / Trypomastigotes pIC50 72 hours: pIC50 = -log10 IC50 in molar units; for Trypomastigotes pIC50 72 hours: 72 hours incubation
How it was run: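 Compounds were tested in dose response or once at a final 5 μM against 5 × 10^4 trypomastigotes per well (DMEM, 2% FBS), collected on days 5–8 from LLC-MK2 infected cultures. ATP luminescence via CellTiter-Glo reports live parasites; DMSO defines 0% and cell-free wells 100% effect.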

[2] = system: T. cruzi intracellular amastigotes in H9c2 cells; test: Rate-of-Kill (RoK) high-content imaging assay, amastigotes per cell (AM/CELL) and curve descriptors; format: cell-based, Trypanosoma cruzi; set-up: key to ME_24h / ME_48h / ME_72h: % reduction in parasite burden (cidal response); t50pct_MCC50 / t50pct_Cmax: unit not given here; conditions: for ME_24h: 24h; for ME_48h: 48h; for ME_72h: 72h; for t50%_Cmax / tlag_Cmax / t50pct_Cmax: at Cmax; for ME_24h (%): maximum effect at 24 h; for ME_24h (%) / ME_48h (%) / ME_72h (%): RoK assay; for ME_48h (%): maximum effect at 48 h; for ME_72h (%): maximum effect at 72 h
How it was run: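 Readouts at each time point are amastigotes per cell and host nuclei count (cytotoxicity), from DRAQ5 high-content imaging. Infection: trypomastigotes on H9c2 at MOI 8 for 18 h. Dosing was 5 μM single point or 11 points, 1/3 steps from 50 μM. Effect scaled between 4 h infected and uninfected controls.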

[3] = system: TcCYP51; conditions: formerly reported; cited from earlier work
[4] = trypomastigote assay, 72 h, figure 1B
[5] = maximum percentage of parasite burden reduction reached by any concentration, 24 hours
[6] = 72 hours, plotted values, censored values given without sign
[7] = trypomastigote assay, 48 h, figure 1A
[8] = trypomastigote assay, 72 h, figure 1A

CC[C@@H]([C@H](C)O)n1ncn(-c2ccc(N3CCN(c4ccc(OC[C@@H]5CO[C@@](Cn6cncn6)(c6ccc(F)cc6F)C5)cc4)CC3)cc2)c1=O [Posaconazole, reference compound]
activity in trypomastigotes assay (in words) ([1]; 48 and 72 hours): inactive
IC50 ([1]; 48 h, read-out: Trypomastigotes pIC50 48 hours (converted)): > 50.1 µM
IC50 ([1]; 72 h, read-out: Trypomastigotes pIC50 72 hours (converted)): > 50.1 µM
IC50 ([1]; 72 hours, plotted values, censored values given without sign, read-out: 72 pIC50 (trypomastigotes, raw data of Fig 1D) (converted)): > 50.1 µM
IC50 ([1]; trypomastigote assay, 48 h, figure 1A, read-out: 48 pIC50 (converted)): > 50.1 µM
IC50 ([1]; trypomastigote assay, 72 h, figure 1A, read-out: 72 pIC50 (converted)): > 50.1 µM
72 pIC50 [1, 4]: < 4.3
ME (maximum effect) in RoK assay (in words) [2]: lower ME
tlag (in words) [2]: longer tlag_MCC50 and tlag_Cmax values
ME_24h ([2]; figure 5): -76.4226
ME_48h ([2]; figure 5): -0.321
ME_72h ([2]; figure 5): 50.6685
MCCE (Minimal Compound Concentration with Effect) ([2]; Fig 2C, average, lowest concentration that decreases AUC of AM/CELL versus time by at least 50% vs infected control): 0.003 µM
MCC50 (Minimal Cidal Concentration 50%) ([2]; Fig 2C, average, lowest concentration that reduces 50% of the parasite load measured at zero time, listed as POS): 6.2 µM
t50pct_Cmax (t50%_Cmax) ([2]; Fig 2C, average, time to reduce 50% of initial parasite load at maximum concentration): 65.9 h
MCC50 ([2]; RoK curve descriptor): 6.2 µM
MCCE ([2]; RoK curve descriptor): 0.003 µM
AM/CELL NORM ([2]; Time 4, figure 4 A): 5.09
AM/CELL NORM ([2]; Time 24, figure 4 A): -32.2625
AM/CELL NORM ([2]; Time 48, figure 4 A): -0.614
AM/CELL NORM ([2]; Time 72, figure 4 A): 48.3608
Emax ([2]; Trypanosoma cruzi, H9c2, maximum percentage of parasite burden reduction reached by any concentration, 24 hours, read-out: ME 24h (maximum effect at 24 hours, intracellular amastigotes)): -63%
t50%_Cmax [2]: 65.9 h
tlag_Cmax [2]: 24.0 h
t50pct_Cmax ([2]; figure 5): 65.8667
tlag_Cmax ([2]; figure 5): 24
t50%_MCC50 ([2]; at MCC50): 54.2 h
tlag_MCC50 ([2]; at MCC50): 29.3 h
t50pct_MCC50 ([2]; at MCC50, figure 5): 61.3333
tlag_MCC50 ([2]; at MCC50, figure 5): 46.4
MCCE ([2]; figure 5): 0.002879
MCC50 ([2]; figure 5, in µM): 23.7078
ME_24h (%) [2]: -76.4%
ME_48h (%) [2]: -0.32%
ME_72h (%) [2]: 50.7%
CYP51 pIC50 [3]: 7.3

CC(=Cc1ccccc1)CN1CCC(=O)N(Cc2cccnc2)CC1 [TCMDC-143421]
Trypomastigotes pIC50 48 hours [1]: 4.7
Trypomastigotes pIC50 72 hours [1]: < 4.3
ME_24h ([2]; figure 5): -70.7645
ME_48h ([2]; figure 5): -276.175
ME_72h ([2]; figure 5): -1.901
MCCE ([2]; RoK curve descriptor): 1.9 µM
AM/CELL NORM ([2]; Time 4, sheet figure 4 A): -0.3924
AM/CELL NORM ([2]; Time 24, sheet figure 4 A): -98.2079
AM/CELL NORM ([2]; Time 48, sheet figure 4 A): -300.018
AM/CELL NORM ([2]; Time 72, sheet figure 4 A): -16.9527
tlag_Cmax [2]: 48.0 h
t50pct_Cmax ([2]; figure 5): 72
tlag_Cmax ([2]; figure 5): 48
t50pct_MCC50 ([2]; at MCC50, figure 5): 72
tlag_MCC50 ([2]; at MCC50, figure 5): 72
MCC50 ([2]; figure 5): 50 µM
MCCE ([2]; figure 5): 1.852
ME_24h (%) [2]: -70.8%
ME_48h (%) [2]: -276.2%
ME_72h (%) [2]: -1.9%
ME 24h (maximum effect at 24 hours, intracellular amastigotes) [2, 5]: -70.7645%
CYP51 pIC50 [3]: 7

COc1ccc2ncc(=O)n(CCN3CCOC(CNCc4ccc(C(F)(F)F)cc4F)C3)c2n1 (centres unmarked) [TCMDC-143384]
Trypomastigotes pIC50 48 hours [1]: < 4.3
Trypomastigotes pIC50 72 hours [1]: < 4.3
72 pIC50 (trypomastigotes, raw data of Fig 1D) [1, 6]: < 4.3
48 pIC50 [1, 7]: < 4.3
72 pIC50 [1, 8]: < 4.3
72 pIC50 [1, 4]: < 4.3
ME_24h ([2]; figure 5): -27.6403
ME_48h ([2]; figure 5): -15.9254
ME_72h ([2]; figure 5): -18.8553
MCCE ([2]; RoK curve descriptor): 0.6 µM
AM/CELL NORM ([2]; Time 4, sheet figure 4 A): -15.3138
AM/CELL NORM ([2]; Time 24, sheet figure 4 A): -27.6403
AM/CELL NORM ([2]; Time 48, sheet figure 4 A): -15.9254
AM/CELL NORM ([2]; Time 72, sheet figure 4 A): -18.8553
tlag_Cmax [2]: 24.0 h
t50pct_Cmax ([2]; figure 5): 72
tlag_Cmax ([2]; figure 5): 24
t50pct_MCC50 ([2]; at MCC50, figure 5): 72
tlag_MCC50 ([2]; at MCC50, figure 5): 72
MCC50 ([2]; figure 5): 50 µM
MCCE ([2]; figure 5): 0.6173
ME_24h (%) [2]: -27.6%
ME_48h (%) [2]: -15.9%
ME_72h (%) [2]: -18.9%
ME 24h (maximum effect at 24 hours, intracellular amastigotes) [2, 5]: -27.6403%
CYP51 pIC50 [3]: 5

CN1CCCN(C(=O)c2ccc(N3CCCC3)cc2Cl)CC1 [TCMDC-143127]
Trypomastigotes pIC50 48 hours [1]: < 4.3
Trypomastigotes pIC50 72 hours [1]: < 4.3
72 pIC50 (trypomastigotes, raw data of Fig 1D) [1, 6]: < 4.3
48 pIC50 [1, 7]: < 4.3
72 pIC50 [1, 8]: < 4.3
72 pIC50 [1, 4]: < 4.3
ME_24h ([2]; figure 5): -63.1294
ME_48h ([2]; figure 5): 41.4777
ME_72h ([2]; figure 5): 77.6777
MCC50 ([2]; RoK curve descriptor): 7.0 µM
MCCE ([2]; RoK curve descriptor): 1.9 µM
AM/CELL NORM ([2]; Time 4, sheet figure 4 A): 3.238
AM/CELL NORM ([2]; Time 24, sheet figure 4 A): -70.995
AM/CELL NORM ([2]; Time 48, sheet figure 4 A): 17.9659
AM/CELL NORM ([2]; Time 72, sheet figure 4 A): 59.5367
t50%_Cmax [2]: 67.2 h
tlag_Cmax [2]: 24.0 h
t50pct_Cmax ([2]; figure 5): 67.2
tlag_Cmax ([2]; figure 5): 24
t50%_MCC50 ([2]; at MCC50): 72.0 h
tlag_MCC50 ([2]; at MCC50): 24.0 h
t50pct_MCC50 ([2]; at MCC50, figure 5): 72
tlag_MCC50 ([2]; at MCC50, figure 5): 24
MCCE ([2]; figure 5): 1.852
MCC50 ([2]; figure 5, in µM): 7.037
ME_24h (%) [2]: -63.1%
ME_48h (%) [2]: 41.5%
ME_72h (%) [2]: 77.7%
ME 24h (maximum effect at 24 hours, intracellular amastigotes) [2, 5]: -38.4049%
CYP51 pIC50 [3]: < 4

CNc1cc(C)nc(C2CN(C(=O)c3n[nH]c4ccccc34)CCO2)c1 (centres unmarked) [TCMDC-143494]
Trypomastigotes pIC50 48 hours [1]: 5.9
Trypomastigotes pIC50 72 hours [1]: 5.5
ME_24h ([2]; figure 5): 32.4456
ME_48h ([2]; figure 5): 71.1038
ME_72h ([2]; figure 5): 67.5793
MCC50 ([2]; RoK curve descriptor): 50.0 µM
MCCE ([2]; RoK curve descriptor): 1.9 µM
AM/CELL NORM ([2]; Time 4, sheet figure 4 A): 7.648
AM/CELL NORM ([2]; Time 24, sheet figure 4 A): 27.7451
AM/CELL NORM ([2]; Time 48, sheet figure 4 A): 71.1038
AM/CELL NORM ([2]; Time 72, sheet figure 4 A): 67.5793
t50%_Cmax [2]: 48.0 h
tlag_Cmax [2]: 4.0 h
t50pct_Cmax ([2]; figure 5): 48
tlag_Cmax ([2]; figure 5): 4
t50%_MCC50 ([2]; at MCC50): 48.0 h
tlag_MCC50 ([2]; at MCC50): 4.0 h
t50pct_MCC50 ([2]; at MCC50, figure 5): 48
tlag_MCC50 ([2]; at MCC50, figure 5): 4
MCC50 ([2]; figure 5): 50 µM
MCCE ([2]; figure 5): 1.852
ME_24h (%) [2]: 32.5%
ME_48h (%) [2]: 71.1%
ME_72h (%) [2]: 67.6%
ME 24h (maximum effect at 24 hours, intracellular amastigotes) [2, 5]: 32.4456%
CYP51 pIC50 [3]: < 4
